Results from patent US9617267B2, “Compounds and methods for kinase modulation, and indications therefor” (Plexxikon Inc., priority 2009, dated 2017).

Legend:
B-Raf V600E = B-Raf V600E (Homo sapiens (Human), UniProt P15056, V600E); assay: B-Raf V600E kinase activity biochemical assay (AlphaScreen, biotin-MEK1 phosphorylation); conditions: for IC50: B-Raf V600E; for Biochemical activity ratio V600E/C: ratio of IC50 B-Raf V600E / c-Raf-1
Description: (§1) Compounds to be tested are diluted in dimethyl sulfoxide to a concentration of 0.1 mM. These are serially diluted 15 μL into 30 μL of dimethyl sulfoxide seven times in 96 well plates for a total of 8 dilution points, and for each dilution point 1 μL is added to a well of an assay plate. […] The reaction is started with addition of 10 μL of 200 μM ATP (i.e. final 100 μM ATP). After incubation of the kinase reaction for 45 minutes at room temperature, 5 μL/well of Stop Solution is added (25 mM Hepes pH 7.5, 100 mM EDTA, 0.01% BSA with donor beads (Streptavidin coated beads, Perkin Elmer), acceptor beads (Protein A coated, Perkin Elmer), and anti phosphor MEK1/2 antibody (CellSignal), each at final concentration 10 μg/mL). The plates are incubated for 3 hours at room temperature and read on Envision reader (Perkin Elmer). […] The signal vs. compound concentration is used to determine the IC50.

B-Raf [1] = target: B-Raf (Homo sapiens (Human), UniProt P15056); assay: B-Raf kinase activity biochemical assay (AlphaScreen, biotin-MEK1 phosphorylation); conditions: B-Raf
Chain of B-Raf (Homo sapiens (Human), UniProt P15056) (P15056 whole entry): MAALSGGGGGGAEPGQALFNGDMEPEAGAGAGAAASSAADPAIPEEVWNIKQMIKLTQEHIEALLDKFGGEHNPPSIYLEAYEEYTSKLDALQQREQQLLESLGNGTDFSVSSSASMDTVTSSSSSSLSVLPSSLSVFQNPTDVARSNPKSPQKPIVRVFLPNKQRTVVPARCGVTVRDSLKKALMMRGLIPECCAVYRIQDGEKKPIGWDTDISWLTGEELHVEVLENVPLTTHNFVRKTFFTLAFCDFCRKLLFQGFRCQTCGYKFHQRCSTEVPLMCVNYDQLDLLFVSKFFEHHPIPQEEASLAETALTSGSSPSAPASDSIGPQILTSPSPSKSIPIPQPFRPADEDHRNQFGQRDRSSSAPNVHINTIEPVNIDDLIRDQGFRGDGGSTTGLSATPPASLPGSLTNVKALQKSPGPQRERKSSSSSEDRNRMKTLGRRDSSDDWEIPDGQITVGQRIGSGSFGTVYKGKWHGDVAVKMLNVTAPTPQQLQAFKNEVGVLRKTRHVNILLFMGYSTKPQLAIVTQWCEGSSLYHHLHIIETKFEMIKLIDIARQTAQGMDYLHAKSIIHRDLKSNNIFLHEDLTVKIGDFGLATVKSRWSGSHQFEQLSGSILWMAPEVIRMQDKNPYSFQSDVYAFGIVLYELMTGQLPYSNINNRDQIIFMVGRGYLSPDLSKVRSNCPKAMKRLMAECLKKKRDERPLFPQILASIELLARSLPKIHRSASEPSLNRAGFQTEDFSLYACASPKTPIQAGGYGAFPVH
Description: as §1

B-Raf [2] = assay: as above; conditions: for Biochemical activity ratio B/V600E: ratio of IC50 B-Raf / B-Raf V600E; for Biochemical activity ratio B/C: ratio of IC50 B-Raf / c-Raf-1
Description: as §1

c-Raf-1 = c-Raf-1 (Homo sapiens, UniProt P04049); assay: c-Raf-1 kinase activity biochemical assay (AlphaScreen, biotin-MEK1 phosphorylation)
Chain of c-Raf-1 (P04049 whole entry, looked up): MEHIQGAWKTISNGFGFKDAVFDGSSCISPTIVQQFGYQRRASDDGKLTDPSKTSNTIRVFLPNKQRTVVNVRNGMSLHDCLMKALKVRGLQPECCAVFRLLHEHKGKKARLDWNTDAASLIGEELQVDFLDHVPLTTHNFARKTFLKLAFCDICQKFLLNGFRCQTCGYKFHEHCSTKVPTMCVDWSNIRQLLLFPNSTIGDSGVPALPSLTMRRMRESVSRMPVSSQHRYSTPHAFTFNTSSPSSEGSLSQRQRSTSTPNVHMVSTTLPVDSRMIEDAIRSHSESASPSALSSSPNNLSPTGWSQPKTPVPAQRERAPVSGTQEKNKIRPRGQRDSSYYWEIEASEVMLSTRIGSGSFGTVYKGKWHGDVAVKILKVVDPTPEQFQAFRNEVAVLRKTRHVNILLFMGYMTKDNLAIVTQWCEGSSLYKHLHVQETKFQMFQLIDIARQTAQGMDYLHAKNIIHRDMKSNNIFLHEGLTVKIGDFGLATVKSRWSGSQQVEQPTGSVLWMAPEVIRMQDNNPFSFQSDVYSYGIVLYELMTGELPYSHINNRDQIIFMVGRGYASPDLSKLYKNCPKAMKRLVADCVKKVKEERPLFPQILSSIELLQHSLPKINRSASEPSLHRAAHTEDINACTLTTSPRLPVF
Description: as §1

[3] = Relative solubility by turbidity threshold concentration in aqueous buffers (pH 1.5, 4.5, 6.8, 7.4); assay type: physicochemical; conditions: for turbidity threshold (L, M, H) 1.4: pH 1.4 [sic] (method: SGF pH 1.5); for turbidity threshold (L, M, H) 4.5: pH 4.5 (SIF); for turbidity threshold (L, M, H) 6.8: pH 6.8 (SIF); for turbidity threshold (L, M, H) 7.4: pH 7.4 (HEPES)
Description: As an indication of relative solubility, the turbidity of compounds in aqueous solutions is assessed. To assess possible compound properties in different physiological compartments, such as stomach, intestine, and blood, a series of aqueous buffers with varying pH is used. Thus each compound is diluted into four different physiologically relevant buffers and solution turbidity is measured by spectrophotometry.
Compounds are dissolved at a concentration of 25 mM in dimethyl sulfoxide, then serially diluted 1:1 into a 96 well plate, diluting 10 times in pure dimethyl sulfoxide, with the final well of each row a dimethyl sulfoxide blank. In an assay plate, 99 μL of appropriate buffer is added to each well, and 1 μL of each sample dilution is added to the buffer, achieving a range of final total concentrations in aqueous solutions having different pH. The buffers used are Simulated Gastric Fluid (SGF-pH 1.5) 0.5M NaCl, pH 1.5; Simulated Intestinal fluid (SIF-pH 4.5 and pH 6.8) 0.05M NaH2PO4, pH 4.5 and 6.8; and Hepes Buffer (HEPES-pH 7.4) 10 mM HEPES, 150 mM NaCl, pH 7.4. Control compounds pyrene, estriol and propranolol HCl are also assessed. Plates are spun and then mixed for 1 minute, and the absorbance is read using a Tecan Safire II to read wavelengths in the visible range (490, 535, and 650 nm) at four locations per well, reflecting the degree of turbidity present. The average optical density for each wavelength in each well is graphed vs. compound concentration, and the concentration at which the curve crosses a threshold O.D. of 0.01 for each wavelength is reported as the endpoint turbidity assay result. The average of the three wavelengths is used to compare turbidity of compounds. Compounds are considered to have low solubility if the threshold concentration is <31.3 μM, moderate solubility if the threshold concentration is 31.3 μM to 250 μM, and high solubility if the threshold concentration is >250 μm.
The following table indicates the relative solubility (L=low, M=moderate, H=high) based on turbidity threshold concentration at each pH for exemplary compounds according to the invention as indicated: […]

CYP2C19 = CYP2C19 (Homo sapiens (Human), UniProt P33261); assay: CYP enzyme inhibition, fluorescent substrate (CEC); conditions: read-out: Cyp IC50 2C19; CYP2C19, substrate CEC
Chain of CYP2C19 (P33261 whole entry): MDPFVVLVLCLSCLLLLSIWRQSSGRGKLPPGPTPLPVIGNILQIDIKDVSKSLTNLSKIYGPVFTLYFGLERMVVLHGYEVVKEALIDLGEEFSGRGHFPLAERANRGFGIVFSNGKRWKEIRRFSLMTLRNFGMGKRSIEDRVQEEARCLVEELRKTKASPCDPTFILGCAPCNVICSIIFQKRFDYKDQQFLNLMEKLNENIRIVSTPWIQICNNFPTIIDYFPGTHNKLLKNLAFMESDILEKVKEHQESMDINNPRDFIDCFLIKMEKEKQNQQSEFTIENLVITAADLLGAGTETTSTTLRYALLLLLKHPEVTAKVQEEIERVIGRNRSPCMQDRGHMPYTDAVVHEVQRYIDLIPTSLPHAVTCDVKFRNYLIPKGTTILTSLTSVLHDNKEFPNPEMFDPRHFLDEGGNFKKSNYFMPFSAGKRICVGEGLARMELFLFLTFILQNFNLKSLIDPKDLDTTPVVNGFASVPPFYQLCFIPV
Description: CYP (Cytochrome P450) enzymes are the major drug metabolizing enzymes present in the liver. The inhibition of CYP enzyme activity (IC50) for each of CYP1A2, CYP2C19, CYP2C9, CYP2D6, CYP3A4(BFC) and CYP3A4(BQ) is determined for compounds, where inhibition of metabolism of a known substrate leads to a decrease in the fluorescence of the metabolized product. The fluorescence of the product is monitored as a function of compound concentration.
Compounds are dissolved in dimethyl sulfoxide to a concentration of 100 mM. These are diluted 1 μL into 82 μL of acetonitrile. […] These are then serially diluted 1:1 (160 μL to 160 μL co-factor mix) for a total of 10 points. A 10 μL aliquot of this final mixture is dispensed into 384 well assay plates and incubated for 10 minutes at 37° C. […] Assay plates are incubated at 37° C. […] The signal versus compound concentration is used to determine the IC50. The enzymes and substrates for this assay are obtained from BD Biosciences.

Chain of B-Raf V600E (P15056 whole entry V600E): as the sequence (P15056 whole entry) above, with V600E counted along it

Row | SMILES | IC50 (B-Raf V600E) [µM] | Biochemical activity ratio V600E/C (B-Raf V600E) | IC50 (B-Raf [1]) [µM] | Biochemical activity ratio B/V600E (B-Raf [2]) | Biochemical activity ratio B/C (B-Raf [2]) | IC50 (c-Raf-1) [µM] | turbidity threshold (L, M, H) 1.4 [3] | turbidity threshold (L, M, H) 4.5 [3] | turbidity threshold (L, M, H) 6.8 [3] | turbidity threshold (L, M, H) 7.4 [3] | IC50 (CYP2C19) [µM]
1 | O=C(c1c(F)ccc(NS(=O)(=O)c2ccc(C(F)(F)F)cc2)c1F)c1c[nH]c2ncnc(OC3CCOCC3)c12 [P-1021, N-{2,4-Difluoro-3-[4-(tetrahydro-pyran-4-yloxy)-7H-pyrrolo[2,3-d]pyrimidine-5-carbonyl]-phenyl}-4-trifluoromethyl-benzenesulfonamide] | > 0.1 | >10 | > 0.1 | 0.1-10 | >10 | < 0.1 |  |  |  |  | 
2 | O=C(c1c(F)ccc(NS(=O)(=O)c2ccc(C(F)(F)F)cc2)c1F)c1c[nH]c2nccc(C(F)(F)F)c12 [P-2016, N-[2,4-Difluoro-3-(4-trifluoromethyl-1H-pyrrolo[2,3-b]pyridine-3-carbonyl)-phenyl]-4-trifluoromethyl-benzenesulfonamide] | > 0.1 | >10 | > 0.1 | 0.1-10 | 0.1-10 | < 0.1 | L (low solubility if the threshold concentration is <31.3 μM) | L (low solubility if the threshold concentration is <31.3 μM) | L (low solubility if the threshold concentration is <31.3 μM) | M (moderate solubility if the threshold concentration is 31.3 μM to 250 μM) | 
3 | O=C(c1c(F)ccc(NS(=O)(=O)c2ccccc2)c1F)c1c[nH]c2nccc(C(F)(F)F)c12 [P-2017, N-[2,4-Difluoro-3-(4-trifluoromethyl-1H-pyrrolo[2,3-b]pyridine-3-carbonyl)-phenyl]-benzenesulfonamide] | > 0.1 | >10 | > 0.1 | 0.1-10 | >10 | < 0.1 | L (low solubility if the threshold concentration is <31.3 μM) | L (low solubility if the threshold concentration is <31.3 μM) | L (low solubility if the threshold concentration is <31.3 μM) | M (moderate solubility if the threshold concentration is 31.3 μM to 250 μM) | 
4 | N#Cc1ncnc2[nH]cc(C(=O)c3c(F)ccc(NS(=O)(=O)c4ccc(C(F)(F)F)cc4)c3F)c12 [P-1023, N-[3-(4-Cyano-7H-pyrrolo[2,3-d]pyrimidine-5-carbonyl)-2,4-difluoro-phenyl]-4-trifluoromethyl-benzenesulfonamide] | > 0.1 | >10 | > 0.1 | 0.1-10 | 0.1-10 | > 0.1 |  |  |  |  | 
5 | CCCS(=O)(=O)Nc1ccc(F)c(C(=O)c2c[nH]c3ncnc(O)c23)c1F [P-1022, Propane-1-sulfonic acid [2,4-difluoro-3-(4-hydroxy-7H-pyrrolo[2,3-d]pyrimidine-5-carbonyl)-phenyl]-amide] | > 0.1 | 0.1-10 | > 0.1 | 0.1-10 | 0.1-10 | < 0.1 |  |  |  |  | 
6 | O=C(c1c(F)ccc(NS(=O)(=O)c2ccc(C(F)(F)F)cc2)c1F)c1c[nH]c2ncnc(N3CCOCC3)c12 [P-1017, N-[2,4-Difluoro-3-(4-morpholin-4-yl-7H-pyrrolo[2,3-d]pyrimidine-5-carbonyl)-phenyl]-4-trifluoromethyl-benzenesulfonamide] | > 0.1 | >10 | > 0.1 | 0.1-10 | 0.1-10 | > 0.1 |  |  |  |  | 
7 | CCCS(=O)(=O)Nc1ccc(F)c(C(=O)c2c[nH]c3nccc(NC4CCOCC4)c23)c1F [P-2013, Propane-1-sulfonic acid {2,4-difluoro-3-[4-(tetrahydro-pyran-4-ylamino)-1H-pyrrolo[2,3-b]pyridine-3-carbonyl]-phenyl}-amide] | < 0.1 |  |  |  |  | < 0.1 | H (high solubility if the threshold concentration is >250 μm) | H (high solubility if the threshold concentration is >250 μm) | H (high solubility if the threshold concentration is >250 μm) | H (high solubility if the threshold concentration is >250 μm) | > 10
8 | COc1ccc(S(=O)(=O)Nc2ccc(F)c(C(=O)c3c[nH]c4ncnc(C)c34)c2F)cc1F [P-1036, N-[2,4-Difluoro-3-(4-methyl-7H-pyrrolo[2,3-d]pyrimidine-5-carbonyl)-phenyl]-3-fluoro-4-methoxy-benzenesulfonamide] | < 0.1 | 0.1-10 | > 0.1 | >10 | >10 | < 0.1 |  |  |  |  | 
9 | COc1ccc(S(=O)(=O)Nc2ccc(F)c(C(=O)c3c[nH]c4ncnc(OC)c34)c2F)cn1 [P-1018, 6-Methoxy-pyridine-3-sulfonic acid [2,4-difluoro-3-(4-methoxy-7H-pyrrolo[2,3-d]pyrimidine-5-carbonyl)-phenyl]-amide] | > 0.1 | 0.1-10 | > 0.1 | >10 | >10 | > 0.1 |  |  |  |  | 
10 | CCc1ccc(S(=O)(=O)Nc2ccc(F)c(C(=O)c3c[nH]c4ncnc(C)c34)c2F)cc1 [P-1019, N-[2,4-Difluoro-3-(4-methyl-7H-pyrrolo[2,3-d]pyrimidine-5-carbonyl)-phenyl]-4-ethyl-benzenesulfonamide] | > 0.1 | 0.1-10 | > 0.1 | 0.1-10 | 0.1-10 | > 0.1 |  |  |  |  | 
11 | CCCS(=O)(=O)Nc1ccc(F)c(C(=O)c2c[nH]c3nccc(C(F)(F)F)c23)c1F [P-2015, Propane-1-sulfonic acid [2,4-difluoro-3-(4-trifluoromethyl-1H-pyrrolo[2,3-b]pyridine-3-carbonyl)-phenyl]-amide] |  |  |  |  |  | < 0.1 | M (moderate solubility if the threshold concentration is 31.3 μM to 250 μM) | M (moderate solubility if the threshold concentration is 31.3 μM to 250 μM) | M (moderate solubility if the threshold concentration is 31.3 μM to 250 μM) | M (moderate solubility if the threshold concentration is 31.3 μM to 250 μM) | > 10
